SMILES strings stand for the structures. Values after ≈ are worked out from the molar mass of the structure shown. Like-named read-outs stand apart in the source and are kept apart here.

Data set [1] deals with enzyme which decomposes R-Val-Val-X-Ala-X to Val-X-Ala-X. The data set can be described thus: Effect of various inhibitors and metal ions on the enzyme activity. The format is biochemical, Bacillus sphaericus ATCC 14577.
The next data set concerns the target T1, pepsin (SIGMA, 2XCRY) (Sus scrofa, UniProt P00791).
T1 construct: purchased SIGMA 2XCRY
In words: Assay of pepsin-inhibitory activity (casein digestion). The format is biochemical. Here is the method:
Assay of pepsin-inhibitory activity in this invention was performed according to the following method: A mixture of 1 ml of 0.6 %, by weight, highly purified casein dissolved in 0.08M lactate buffer solution, pH 2.2, 0.7 ml of 0.02M KCl-HCl buffer solution, pH 2.0, and 0.2 ml of solution containing the compound sample was incubated at 37° C for three minutes. To this mixture 4 mcg of pepsin (SIGMA, 2XCRY) dissolved in 0.1 ml of 0.2M KCl-HCl buffer solution were added. The mixture was incubated at 37° C for 30 minutes. The reaction was stopped by the addition of 2.0 ml of 1.7M perchloric acid. After one hour at room temperature, the optical density (a) of the supernatant liquid was read at 280 mμ. An inhibition rate was obtained according to:
where (b) is the optical density at 280 mμ of the tube without the sample solution.
The ID50 is defined as the amount necessary for 50 % of the inhibition rate.
(§1) As an example of one of the physiological activities of the peptide and N-acyl derivatives thereof obtained according to the present invention, anti-pepsin and anti-cathepsin D activities and also acute toxicity are given in Table 8. The activities (ID50) were assayed according to the method described above and The Journal of Antibiotics 25 689 (1972). The antiprotease activities of the peptide and N-acyl derivatives thereof are extremely high.

The next data set in a line: Acute toxicity in mice. The format is in vivo. Conditions: mouse, in vivo, ip, abdominal injection. As for the experimental part:
as §1
(§2) Note: Acute toxicity was examined by administering the compounds to the
(§3) mice by abdominal injection
(§4) *This value was obtained by intravenous injection.

Another data set is described as follows: Solubility in water. The format is physicochemical. From the text: The solubilities in water of the N-acyl derivatives according to the present invention are shown in Table 10 compared with the known N-acyl peptides having physiological activity.
The next data set concerns Cathepsin D. In words: Anti-cathepsin D activity (method of The Journal of Antibiotics 25 689 (1972)). The format is biochemical. Here is the method: as §1
For a further data set, the system named is mice. In words: Acute toxicity in mice. The format is in vivo. As for the experimental part: as §1, §2, §3, §4
A short description of data set [2]: Solubility of the hydrolysis product in organic solvents. The format is physicochemical.
The next data set has as its system Stomach ulcers in rats. The data set can be described thus: Stress stomach ulcers in rats (method of Takagi et al.). The format is in vivo. Here is the method:
Stomach ulcers in rats made by the method described in Takagi et al. in the Japanese Journal of Pharmacology, 18, 9-19, […], that is, placing male rats in a cage at 23° C. for 22 hours, are protected or therapetuically treated by the compounds. When 50 mg/kg of pepstatin and the compounds according to the invention were orally given 30 minutes before the stress, and the rats were sacrificed 48 hours afte the stress, the curative ratio of the ulcers was 60 - 75%. When the dose was 10 mg/kg, the inhibition percentage of the ulcers was 50 - 60%.

Setting [3] is: Concentration 2 mM, Control (No Addition) 100.
Where [4] appears, read: Concentration 10 mM, Control (No Addition) 100.
[5] abbreviates: casein, pH 2, 37° C, 30 minutes, read-out: ID50 Pepsin (converted).

T1 sequence (P00791 60-385): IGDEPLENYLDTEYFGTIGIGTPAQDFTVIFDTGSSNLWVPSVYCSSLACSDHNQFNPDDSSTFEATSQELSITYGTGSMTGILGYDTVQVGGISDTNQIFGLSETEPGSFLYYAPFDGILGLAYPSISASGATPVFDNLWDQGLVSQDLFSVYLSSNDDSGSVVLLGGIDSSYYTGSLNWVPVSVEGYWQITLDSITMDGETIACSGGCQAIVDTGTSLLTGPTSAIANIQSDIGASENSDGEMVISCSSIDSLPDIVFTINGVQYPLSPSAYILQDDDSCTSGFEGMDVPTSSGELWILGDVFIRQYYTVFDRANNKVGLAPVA

On to `c1cnc2c(c1)ccc1cccnc12` [o-Phenanthroline], for which, in data set [1] (2mM), the “Inhibition of the enzyme” value was “Inhibition”. The compound further registered a Relative activity in data set [1] (setting [3]) of 0. With `[Cl][Co][Cl]` [Cobalt Chloride], the Relative activity came to 134 in data set [1] (setting [3]) and 166 in data set [1] (setting [4]).

The compound `O=C(O)CN(CCN(CC(=O)O)CC(=O)O)CC(=O)O` [Ethylenediaminetetraacetic Acid] returned a Relative activity in data set [1] (setting [3]) of 30.

One may read the LD50 as the dose at which mortality reaches 50%. A lower LD50 goes with a more toxic substance. For the compound `CC(C)C[C@H](NC(=O)[C@H](C)NC(=O)C[C@H](O)[C@H](CC(C)C)NC(=O)[C@@H](NC(=O)COc1ccccc1)C(C)C)[C@@H](O)CC(=O)O` [Phenoxyacetyl-Val-X-Ala-X, N-phenoxyacetyl-Val-X-Ala-X], the IC50 at pepsin (SIGMA, 2XCRY) was 0.0314 µM. The LD50 in “Acute toxicity in mice” is 1500 mg/kg. For the same compound, the Solubility in water in the data set “Solubility in water” (20° C) is given as 20,000 mcg/ml. For `[Cl-].[Cl-].[Zn+2]` [Zinc Chloride], the Relative activity is listed as 66 in data set [1] (setting [3]) and 44 in data set [1] (setting [4]). In data set [1], `CC(=O)[O-].CC(=O)[O-].[Pb+2]` [Lead Acetate] gave a Relative activity of 43.

Regarding `[Ca+2].[Cl-].[Cl-]` [Calcium Chloride], in data set [1], the Relative activity came to 110 and the increase in activity was found to be 29%. For the compound `CC(C)CC(=O)N[C@H](C(=O)N[C@H](C(=O)N[C@@H](CC(C)C)[C@@H](O)CC(=O)N[C@@H](C)C(=O)N[C@@H](CC(C)C)[C@@H](O)CC(=O)O)C(C)C)C(C)C` [Pepstatin A], the Solubility in water in “Solubility in water” stood at 200 µg/mL (≈ 292 µM). In the case of `CCCCCC(=O)N[C@H](C(=O)N[C@H](C(=O)N[C@@H](CC(C)C)[C@@H](O)CC(=O)N[C@@H](C)C(=O)N[C@@H](CC(C)C)[C@@H](O)CC(=O)O)C(C)C)C(C)C` [Pepstatin B, n-caproyl-L-valyl-L-valyl-4-amino-3-hydroxy-6-methylheptanoyl-L-alanyl-4-a mino-3-hydroxy-6-methylheptanoic acid], the Solubility in water in “Solubility in water” (20° C) is 100 µg/mL (≈ 143 µM). As to `CC(=O)C(CC(C)C)NC(=O)[C@H](C)NC(=O)CC(O)C(CC(C)C)NC(=O)[C@@H](NC(=O)[C@@H](NC(=O)CC(C)C)C(C)C)C(C)C` (stereo partly drawn) [Pepstanone A, isovaleryl-Val-Val-X-Ala-X'], the Solubility in water in “Solubility in water” (20° C) came out at 50 µg/mL (≈ 78.1 µM). Consider `CC(=O)[O-].CC(=O)[O-].[Hg+2]` [Mercuric Acetate], for which, in data set [1], the Relative activity is 0. On to `O[C@H](CS)[C@H](O)CS` (racemic) [Dithiothreitol], for which the “Inhibition of the enzyme” value in data set [1] (2mM) is recorded as “Inhibition”. In data set [1] (setting [3]), this compound gave a Relative activity of 0. In the data set “Acute toxicity in mice”, `CC(C)C[C@H](NC(=O)[C@H](C)NC(=O)C[C@H](O)[C@H](CC(C)C)NC(=O)[C@@H](NC(=O)c1ccccc1)C(C)C)[C@@H](O)CC(=O)O` [Benzoyl-Val-X-Ala-X, N-benzoyl-Val-X-Ala-X] came in with a median lethal dose (LD50) of 1350 mg/kg. Besides, in the data set on Cathepsin D, the “ID50 Cathepsin D” value turned out to be 0.05 µg/mL (≈ 0.0824 µM). As for `O=C1CCC(=O)N1Br` [N-Bromosuccinimide], the “Inhibition of the enzyme” value in data set [1] (2mM) is reported as “Inhibition”. This compound displayed a Relative activity in data set [1] (setting [3]) of 0.

As to `CCCCCCCCCCCCCCCC(=O)N[C@H](C(=O)N[C@@H](CC(C)C)[C@@H](O)CC(=O)N[C@@H](C)C(=O)N[C@@H](CC(C)C)[C@@H](O)CC(=O)O)C(C)C` [Palmitoyl-Val-X-Ala-X, N-palmitoyl-Val-X-Ala-X], the IC50 at pepsin (SIGMA, 2XCRY) (setting [5]) was 0.607 µM. As for `OCCS` [β-Mercaptoethanol], in data set [1] (2mM), the “Inhibition of the enzyme” value is “Inhibition”. Further, the Relative activity in data set [1] (setting [3]) is given as 0. `O=C(O)CI` [Monoiodoacetic Acid] came in with a Relative activity in data set [1] of 84. As to `CC(C)C[C@H](NC(=O)[C@H](C)NC(=O)C[C@H](O)[C@H](CC(C)C)NC(=O)[C@@H](NC(=O)C(C)Oc1ccccc1)C(C)C)[C@@H](O)CC(=O)O` (some centres unmarked) [Phenoxypropionyl-Val-X-Ala-X, N-2-phenoxypropionyl-Val-X-Ala-X], at pepsin (SIGMA, 2XCRY) (setting [5]), the IC50 was 0.0307 µM. The compound also showed an LD50 in the data set “Acute toxicity in mice” of 2100 mg/kg. Moreover, the Solubility in water in “Solubility in water” (20° C) is 15,000 mcg/ml. As for `[N-]=[N+]=[N-].[Na+]` [NaN3], the Relative activity in data set [1] stood at 100. For the compound `CC(C)CC(=O)N[C@H](C(=O)N[C@@H](CC(C)C)[C@@H](O)CC(=O)N[C@@H](C)C(=O)N[C@@H](CC(C)C)[C@@H](O)CC(=O)O)C(C)C` [Isovaleryl-Val-X-Ala-X, N-isovaleryl-Val-X-Ala-X], on pepsin (SIGMA, 2XCRY) (setting [5]), the IC50 was 0.017 µM. Besides, in the data set with mice (abdominal injection), the “Acute toxicity LD0” value was no less than 3000 mg/kg. For the same compound, the Solubility in water in the data set “Solubility in water” (20° C) is recorded as 5,000 mcg/ml. Turning to `[Cl][Hg][Cl]` [HgCl2], the “Inhibition of the enzyme” value in data set [1] (2mM) is recorded as “Inhibition”. In the case of `CC(C)C[C@H](NC(=O)[C@H](C)NC(=O)C[C@H](O)[C@H](CC(C)C)NC(=O)[C@@H](N)C(C)C)[C@@H](O)CC(=O)O` [Val-X-Ala-X, L-valyl-4-amino-3-hydroxy-6-methylheptanoyl-L-alanyl-4-amino-3-hydroxy-6-m ethylheptanoic acid], the “Solubility” value was “insoluble” in data set [2] (ether, ethyl acetate, and butyl acetate); “soluble” in data set [2] (methanol, ethanol, pyridine, and acetic acid); “slightly soluble” in data set [2] (n-propanol, n-butanol, n-amyl alcohol and acetone). This compound had an IC50 against pepsin (SIGMA, 2XCRY) of 19.9 µM. In addition, the “Acute toxicity LD0” value with mice (abdominal injection) is given as no less than 5000 mg/kg.

As to `CC(C)C[C@H](NC(=O)[C@H](C)NC(=O)C[C@H](O)[C@H](CC(C)C)NC(=O)[C@@H](NC(=O)C(C)C)C(C)C)[C@@H](O)CC(=O)O` [Isobutyryl-Val-X-Ala-X, N-isobutyryl-Val-X-Ala-X], the IC50 on pepsin (SIGMA, 2XCRY) (setting [5]) was 0.0367 µM. For the compound `CC(C)C[C@H](NC(=O)[C@H](C)NC(=O)C[C@H](O)[C@H](CC(C)C)NC(=O)[C@@H](NC(=O)C(C)O)C(C)C)[C@@H](O)CC(=O)O` (some centres unmarked) [Lactoyl-Val-X-Ala-X, lactoyl-Val-X-Ala-X], the IC50 on pepsin (SIGMA, 2XCRY) (setting [5]) was 0.0348 µM. Further, the figures for the “Acute toxicity LD0” value in the data set with mice (abdominal injection) and with mice (intravenous injection) were no less than 6000 mg/kg and no less than 550 mg/kg, respectively. Also, the “Water solubility compared with other derivatives” value in “Solubility in water” is given as “much more water soluble”. In addition, in the data set “Solubility in water” (20° C), the Solubility in water is reported as ≥ 50,000 mcg/ml. In the case of `CC(C)CC(=O)N[C@H](C(=O)N[C@H](C(=O)N[C@@H](CC(C)C)[C@@H](O)CC(=O)N[C@@H](C)C(=O)N[C@@H](CC(C)C)[C@@H](O)CC(=O)O)C(C)C)C(C)C` [pepstatin], in the data set with Stomach ulcers in rats (50 mg/kg orally 30 minutes before the stress, rats sacrificed 48 hours after the stress), the “curative ratio of the ulcers” value is given as 60 - 75%. Moreover, in the data set on Stomach ulcers in rats (50 - 200 mg/kg immediately after the stress and once daily for 4 days), the “cure of ulcers” value is reported as “rapid cure of ulcers was proven”. As to `O=C(O)c1cc[c]([Hg][Cl])cc1` [p-Chloromercuribenzoate], in data set [1], the “Inhibition of the enzyme” value is “Inhibition” and the Relative activity is on record as 2.

The values above are taken from patent US4070458A, “Novel physiologically active peptide and its n-acyl derivatives and processes for producing thereof” (priority 1974, dated 1978).
